Assay results published in PubChem BioAssay (NCI).
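Growth conditions: 96-well plates. Treatment: test compound, 48 hours, 5 concentrations. Analysis: linear interpolation between bracketing concentrations; unreached endpoints set to highest concentration. TGI: concentration producing complete growth inhibition.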

How the values were obtained:
Test in all cases: NCI anticancer screen, dose series, 48 h
HT29 colon = tested on: HT29 colon
786-0 renal = tested on: 786-0 renal
M14 melanoma = tested on: M14 melanoma
CCRF-CEM leukemia = tested on: CCRF-CEM leukemia
UO-31 renal = tested on: UO-31 renal
SR leukemia = tested on: SR leukemia
SK-MEL-5 melanoma = tested on: SK-MEL-5 melanoma
NCI-H23 lung = tested on: NCI-H23 lung
PC-3 prostate = tested on: PC-3 prostate
A498 renal = tested on: A498 renal
A549 NSCLC = tested on: A549 NSCLC
EKVX NSCLC = tested on: EKVX NSCLC
SNB-19 CNS = tested on: SNB-19 CNS
SF-268 CNS = tested on: SF-268 CNS
CAKI-1 renal = tested on: CAKI-1 renal
SF-539 CNS = tested on: SF-539 CNS
KM12 colon = tested on: KM12 colon
OVCAR-5 ovarian = tested on: OVCAR-5 ovarian
DU-145 prostate = tested on: DU-145 prostate

SMILES | TGI (HT29 colon) | TGI (786-0 renal) | TGI (M14 melanoma) | TGI (CCRF-CEM leukemia) | TGI (UO-31 renal) | TGI (SR leukemia) | TGI (SK-MEL-5 melanoma) | TGI (NCI-H23 lung) | TGI (PC-3 prostate) | TGI (A498 renal) | TGI (A549 NSCLC) | TGI (EKVX NSCLC) | TGI (SNB-19 CNS) | TGI (SF-268 CNS) | TGI (CAKI-1 renal) | TGI (SF-539 CNS) | TGI (KM12 colon) | TGI (OVCAR-5 ovarian) | TGI (DU-145 prostate)
CCCC#CC(O)(C(=O)OC1CCN(C)CC1)C1CCCCC1 (stereo not drawn) | > 100 µM | > 100 µM | > 100 µM | > 100 µM | > 100 µM | > 100 µM | > 100 µM | > 100 µM | > 100 µM | > 100 µM | > 100 µM | > 100 µM | > 100 µM | > 100 µM | > 100 µM | > 100 µM | > 100 µM | > 100 µM | > 100 µM
NCCCc1c(-c2ccccc2)nc(N)[nH]c1=O | > 100 µM | > 100 µM | > 100 µM | > 100 µM | > 100 µM | > 100 µM | > 100 µM | > 100 µM | > 100 µM | > 100 µM | > 100 µM | > 100 µM | > 100 µM | > 100 µM | > 100 µM | > 100 µM | > 100 µM | > 100 µM | > 100 µM
COc1ccc(C2SCC(=O)N2NC(=O)C(C)Oc2ccccc2Cl)cc1 (stereo not drawn) | > 100 µM | > 100 µM | > 100 µM | 79.6 µM | > 100 µM | 58.1 µM | 65.6 µM | > 100 µM | > 100 µM | 92.2 µM | > 100 µM | > 100 µM | > 100 µM | > 100 µM | > 100 µM | > 100 µM | > 100 µM | > 100 µM | > 100 µM
CC1=C(C(=O)Nc2ccccc2)C(c2ccc(C)o2)C(C#N)=C(SCc2ccccc2)N1 (stereo not drawn) | > 100 µM | > 100 µM | > 100 µM | > 100 µM | > 100 µM | > 68.6 µM | > 100 µM | > 100 µM | > 100 µM | > 100 µM | > 100 µM | > 100 µM | > 100 µM | > 100 µM | > 100 µM | > 100 µM | > 100 µM | > 100 µM | > 100 µM
CCOC(=O)/C=C(\N=P(c1ccccc1)(c1ccccc1)c1ccccc1)C(F)(F)C(F)(F)C(F)(F)C(F)(F)C(F)(F)F | > 100 µM | > 100 µM | > 100 µM | > 100 µM | > 100 µM | > 100 µM | > 100 µM | > 100 µM | > 100 µM | 72.4 µM | > 100 µM | – | > 100 µM | > 100 µM | > 100 µM | > 100 µM | > 100 µM | > 100 µM | > 100 µM
CSc1nc(O)c(/C=C2\C=Nc3ccccc32)[nH]1 | > 100 µM | > 100 µM | > 100 µM | > 100 µM | > 100 µM | > 100 µM | > 100 µM | > 100 µM | > 100 µM | > 100 µM | > 100 µM | – | > 100 µM | > 100 µM | – | > 100 µM | – | > 100 µM | > 100 µM
COc1ccc(Nc2nc(N)c(C(=O)c3ccccc3)s2)cc1 | 15.4 µM | 31.6 µM | – | > 80.6 µM | 44.2 µM | 14.5 µM | 4.01 µM | > 60.3 µM | > 62.4 µM | > 72.5 µM | > 74.5 µM | 58.2 µM | > 100 µM | > 58.1 µM | 33.3 µM | 0.0327 µM | > 19.8 µM | > 78.4 µM | > 72.8 µM
O=C(N/N=C\c1ccc([N+](=O)[O-])cc1)c1ccccc1Nc1ccccc1C(=O)N/N=C/c1ccc([N+](=O)[O-])cc1 | > 100 µM | > 100 µM | 79.7 µM | > 100 µM | > 100 µM | > 100 µM | > 100 µM | > 100 µM | > 100 µM | > 100 µM | > 100 µM | > 100 µM | > 100 µM | > 100 µM | > 100 µM | – | > 100 µM | > 100 µM | > 100 µM
CC(=O)O[C@H]1CC[C@@]2(C)C(=CC[C@@H]3[C@@H]2CC[C@]2(C)c4c(cc(C#N)c(=N)n4C(C)=O)C[C@@H]32)C1 | 43.5 µM | 58.3 µM | 32.5 µM | 23.2 µM | 52.8 µM | 61.2 µM | 29.7 µM | 32.1 µM | 54.6 µM | 88.7 µM | 64.8 µM | 43.2 µM | 89 µM | 62.7 µM | 95.8 µM | – | 32.8 µM | 74.7 µM | 79.3 µM
O=C(CN1CCOCC1)CC(O)(C(F)(F)F)C(F)(F)F | – | > 100 µM | > 100 µM | > 100 µM | > 100 µM | > 100 µM | > 100 µM | > 100 µM | 99.8 µM | > 100 µM | > 100 µM | > 100 µM | > 100 µM | – | > 100 µM | > 100 µM | > 100 µM | > 100 µM | > 100 µM
Nc1nc(N)c2nnn(C[C@H]3CC[C@@H](CO)C3)c2n1 | > 100 µM | > 100 µM | > 100 µM | > 100 µM | > 100 µM | > 100 µM | – | > 100 µM | > 100 µM | > 100 µM | > 100 µM | > 100 µM | > 100 µM | > 100 µM | > 100 µM | > 100 µM | > 100 µM | > 100 µM | > 100 µM
C/C(=N\O)c1cccc(Nc2nc3ccccc3c3occc23)c1 | 15.6 µM | 26.7 µM | 29.7 µM | 31 µM | – | 35.1 µM | 27 µM | – | 25.8 µM | 29.2 µM | 32.5 µM | 25.6 µM | 39.8 µM | 27.6 µM | 34.2 µM | 29.6 µM | 27.3 µM | 30.7 µM | 27.8 µM
S=C(c1c[nH]c2ccccc12)N1CCN(c2ccccc2)CC1 | > 100 µM | > 100 µM | > 100 µM | > 100 µM | – | > 100 µM | > 100 µM | > 100 µM | > 100 µM | > 100 µM | – | > 100 µM | > 100 µM | > 100 µM | > 100 µM | > 100 µM | > 100 µM | > 100 µM | > 100 µM
